Reference: ChEMBL document CHEMBL1137843, “N-4-Substituted-benzyl-N'-tert-butylbenzyl thioureas as vanilloid receptor ligands: investigation on the role of methanesulfonamido group in antagonistic activity” (Bioorg Med Chem Lett, 2004)

Legend:
Type in all cases: functional
Vanilloid receptor [1] = target: T1, Vanilloid receptor (Rattus norvegicus, UniProt Q9ERZ8+Q9WUD2+O35433); test: In vitro antagonist activity at the vanilloid receptor in rat DRG neurons.
Vanilloid receptor [2] = target: T1, Vanilloid receptor; test: In vitro agonist activity, increased [Ca2+] influx, at vanilloid receptor of rat dorsal root ganglia (partial at 30 uM)
Vanilloid receptor [3] = target: T1, Vanilloid receptor; test: In vitro agonist activity, increased [Ca2+] influx, at vanilloid receptor of rat dorsal root ganglia
Vanilloid receptor [4] = target: T1, Vanilloid receptor; test: In vitro antagonist activity at vanilloid receptor in rat dorsal root ganglia (partial at 30 uM)

Compound | IC50 (Vanilloid receptor [1]) [µM] | other results
CCCS(=O)(=O)Nc1ccc(C/N=C(\S)NCc2ccc(C(C)(C)C)cc2)cc1 | 4.5 | 
CC(C)(C)c1ccc(C/N=C(\S)NCc2ccc(O)cc2)cc1 |  | EC50 (Vanilloid receptor [2]): > 30 µM
CC(C)(C)c1ccc(C/N=C(\S)NCc2ccc(N)cc2)cc1 |  | EC50 (Vanilloid receptor [3]): 7 µM
CCCCS(=O)(=O)Nc1ccc(C/N=C(\S)NCc2ccc(C(C)(C)C)cc2)cc1 | 4.1 | 
CC(C)(C)c1ccc(C/N=C(\S)NCc2ccc(NS(=O)(=O)C(F)(F)F)cc2)cc1 | 12.4 | 
CC(C)(C)c1ccc(C/N=C(\S)NCc2ccc(NS(=O)(=O)c3cccs3)cc2)cc1 |  | IC50 (Vanilloid receptor [4]): > 30 µM
CC(C)(C)c1ccc(C/N=C(\S)NCc2ccc(NS(=O)(=O)Cc3ccccc3)cc2)cc1 | 1.5 | 
COc1cc(C/N=C(\S)NCc2ccc(C(C)(C)C)cc2)ccc1OS(C)(=O)=O | 0.3 | 
CC(C)(C)c1ccc(C/N=C(\S)NCc2ccc(C(F)(F)F)cc2)cc1 | 12.4 | 
Oc1cc2c(cc1O)CN(C(=S)NCCc1ccc(Cl)cc1)CCC2 [CAPSAZEPINE] | 0.65 | 
CC(C)(C)c1ccc(C/N=C(\S)NCc2ccc(NC(=N)S)cc2)cc1 |  | EC50 (Vanilloid receptor [2]): > 30 µM; IC50 (Vanilloid receptor [4]): > 30 µM
CC(C)(C)c1ccc(C/N=C(\S)NCc2ccc(NS(=O)(=O)CC(F)(F)F)cc2)cc1 | 11.7 | 
CC(C)(C)c1ccc(C/N=C(\S)NCc2ccc([N+](=O)[O-])cc2)cc1 |  | IC50 (Vanilloid receptor [4]): > 30 µM

Further lines, with some results ahead:

IC50 (Vanilloid receptor [1]) [µM] | Compound | other results
1.3 | CCS(=O)(=O)Nc1ccc(C/N=C(\S)NCc2ccc(C(C)(C)C)cc2)cc1 | 
9.3 | CC(C)(C)c1ccc(C/N=C(\S)NCc2ccc(OS(C)(=O)=O)cc2)cc1 | 
1 | CC(C)(C)c1ccc(C/N=C(\S)NCc2ccc(NS(N)(=O)=O)cc2)cc1 | 
2.5 | CNS(=O)(=O)Nc1ccc(C/N=C(\S)NCc2ccc(C(C)(C)C)cc2)cc1 | 
2.5 | CN(c1ccc(C/N=C(\S)NCc2ccc(C(C)(C)C)cc2)cc1)S(C)(=O)=O | 
14.6 | CN(C)S(=O)(=O)Nc1ccc(C/N=C(\S)NCc2ccc(C(C)(C)C)cc2)cc1 | 
3.8 | CC(C)S(=O)(=O)Nc1ccc(C/N=C(\S)NCc2ccc(C(C)(C)C)cc2)cc1 | 
